Measured values as given in PMC6801739, “Antitumor Activity of a Novel Tyrosine Kinase Inhibitor AIU2001 Due to Abrogation of the DNA Damage Repair in Non-Small Cell Lung Cancer Cells” (International Journal of Molecular Sciences, 2019).

How the values were obtained:
Type in all cases: cell-based, human
[1] = test system: A549 cells; assay: MTT cell viability assay, single drugs and combinations, CI scores
Protocol: (§1) Cell viability was assessed using the MTT colorimetric assay. Cells (1 × 10^3 cells/well) were seeded into 96-well plates and treated with the various concentrations of each compound or combination of two compounds. After five days of treatment, 10 μL MTT (0.5 mg/mL) was added, and further incubated for 3 h. After removal of the supernatant, the resultant pellet was dissolved in DMSO. The absorbance of the resultant formazan was measured at 540 nm using a plate reader (Multiskan EX; ThermoLabsystems, Waltham, MA, USA).
(§2) CI scores were calculated using the CompuSyn software by Chou (CompuSyn Inc., Paramus, NJ) based on cell viability after treatment with single- and paired-drug concentrations. The CI equation for two drugs was used: CI=(D)A/(Dx)A+(D)B/(Dx)B where (Dx)A is the concentration of drug A alone that inhibits x%, (Dx)B is the concentration of drug B alone that inhibits x%, (D)A or (D)B is the portion of drug A or drug B in the combination (D)A + (D)B that inhibits x%.

[2] = test system: H1299 cells; assay: as above
Protocol: as §1, §2

[3] = test system: CCD18-Lu cells; assay: MTT cell viability assay; conditions: CCD18-Lu lung fibroblast cells, five days
Protocol: as §1

[4] = test system: BEAS2B cells; assay: MTT cell viability assay; conditions: BEAS2B normal bronchial epithelial cells, five days
Protocol: as §1

[5] = test system: H460 cells; assay: MTT cell viability assay; conditions: five days
Protocol: as §1

[6] = test system: A549 cells; assay: qPCR of DNA damage repair genes and STAT5 mRNA; conditions: 24 h
Description: (§3) RNA was extracted using TRIzol® RNA isolation reagent (ThermoFisher Scientific). RNA was reverse-transcribed into cDNA using the M-MLV reverse transcriptase (Enzynomics, Daejeon, Korea) and RNase inhibitor (Promega, Madison, WI, USA). The sequence of the primers targeting human BRCA1, BRCA2, RAD51, BARD1, XRCC6, and XRCC5 are as follows: BRCA1 sense 5′-[…]-3′, BRCA1 antisense 5′-[…]-3′, BRCA2 sense 5′-[…]-3′, BRCA2 antisense 5′-[…]-3′, RAD51 sense 5′-[…]-3′, RAD51 antisense 5′-[…]-3′, BARD1 sense 5′-[…]-3′, BARD1 antisense 5′-[…]-3′, XRCC6 sense 5′-[…]-3′, XRCC6 antisense 5′-[…]-3′, XRCC5 sense 5′-[…]-3′,and XRCC5 antisense 5′-[…]-3′. β-actin was used as a housekeeping gene for normalization. The cDNA was quantified using real-time PCR with SYBR Green/fluorescein qPCR master mix (ThermoScientific, Carlsbad, CA, USA) on a Lightcycler 96 system (Roche Diagnostics, Mannheim, Germany) according to the manufacturer’s protocol.

[7] = test system: H1299 cells; assay: qPCR of DNA damage repair genes and STAT5 mRNA; conditions: 24 h
Description: as §3

Molecule CC(C)(C)c1cc(NC(=O)Nc2ccc(-c3cn4c(n3)sc3cc(OCCN5CCOCC5)ccc34)cc2)no1 [quizartinib, reference compound] has a viability at 0.16 µM ([1]; Homo sapiens, 120 h, Olaparib 0, Quizartinib 0.16 μM, 5 days, panel B, read-out: Relative viability) of 93.1%, a viability at 0.32 µM ([1]; Homo sapiens, 120 h, Olaparib 0, Quizartinib 0.32 μM, 5 days, panel B, read-out: Relative viability) of 91.8% and a viability at 0.63 µM ([1]; Homo sapiens, 120 h, Olaparib 0, Quizartinib 0.63 μM, 5 days, panel B, read-out: Relative viability) of 93.9%. For the same molecule, the viability at 1.25 µM ([1]; Homo sapiens, 120 h, Olaparib 0, Quizartinib 1.25 μM, 5 days, panel B, read-out: Relative viability) was 92.6%, the viability at 2.5 µM ([1]; Homo sapiens, 120 h, Olaparib 0, Quizartinib 2.50 μM, 5 days, panel B, read-out: Relative viability) was 87.5% and the viability at 5 µM ([1]; Homo sapiens, 120 h, Olaparib 0, Quizartinib 5.00 μM, 5 days, panel B, read-out: Relative viability) was 77.8%. For the same molecule, the viability at 10 µM ([1]; Homo sapiens, 120 h, Olaparib 0, Quizartinib 10.00 μM, 5 days, panel B, read-out: Relative viability) was 64.6%, the “Growth inhibition” value ([1]; MTT, five days) was “slightly inhibited the proliferation” and the viability at 0.16 µM ([2]; Homo sapiens, NCI-H1299, 120 h, Olaparib 0, Quizartinib 0.16 μM, 5 days, panel B, read-out: Relative viability) was 104%. It also gave a viability at 0.32 µM ([2]; Homo sapiens, NCI-H1299, 120 h, Olaparib 0, Quizartinib 0.32 μM, 5 days, panel B, read-out: Relative viability) of 105%, a viability at 0.63 µM ([2]; Homo sapiens, NCI-H1299, 120 h, Olaparib 0, Quizartinib 0.63 μM, 5 days, panel B, read-out: Relative viability) of 106% and a viability at 1.25 µM ([2]; Homo sapiens, NCI-H1299, 120 h, Olaparib 0, Quizartinib 1.25 μM, 5 days, panel B, read-out: Relative viability) of 92.7%. For the same molecule, the viability at 2.5 µM ([2]; Homo sapiens, NCI-H1299, 120 h, Olaparib 0, Quizartinib 2.50 μM, 5 days, panel B, read-out: Relative viability) was 87.3%, the viability at 5 µM ([2]; Homo sapiens, NCI-H1299, 120 h, Olaparib 0, Quizartinib 5.00 μM, 5 days, panel B, read-out: Relative viability) was 65.8% and the viability at 10 µM ([2]; Homo sapiens, NCI-H1299, 120 h, Olaparib 0, Quizartinib 10.00 μM, 5 days, panel B, read-out: Relative viability) was 32.1%. The “Growth inhibition” value ([2]; MTT, five days) was “slightly inhibited the proliferation”, the “Growth inhibition” value [3] was “slightly inhibited the proliferation” and the “Growth inhibition” value [4] was “slightly inhibited the proliferation”. The “Growth inhibition” value [5] was “slightly inhibited the proliferation”, the “Expression level of STAT5 mRNA” value [6] was “decreased the expression” and the “mRNA levels of HR (BRCA1, BRCA2, BARD1, RAD51) and NHEJ (XRCC5, XRCC6) genes” value [6] was “decreased the expression”. The “Expression level of STAT5 mRNA” value [7] was “decreased the expression” and the “mRNA levels of HR (BRCA1, BRCA2, BARD1, RAD51) and NHEJ (XRCC5, XRCC6) genes” value [7] was “decreased the expression”.
